Key:
[1] = test system: pseudovirus HIV-1 HXB2; experiment: organism not typed; type: cell-based; settings: anti-HIV-1 activity, single-cycle assay, TZM-bl cells, pseudovirus HIV-1 HXB2, read-out: IC50
[2] = test system: TZM-bl cells; settings: human, 3 days
Protocol: (§1) The anti-HIV-1 activity was assessed in a single-cycle assay by infecting TZM-bl indicator cells with the pseudovirus HIV-1 HXB2 according to established procedures (F. Curreli, Y. D. Kwon, D. S. Belov, R. R. Ramesh, A. V. Kurkin, A. Altieri, P. D. Kwong, A. K. Debnath, J Med Chem 2017, 60, 3124-3153; which is incorporated herein by reference for all that it teaches about the conduct and interpretation of the assay).
(§2) The cytotoxicity of the small polycyclic molecules in TZM-bl cells was determined by using the colorimetric method CellTiter 96® AQueous One Solution Cell Proliferation Assay (MTS) (Promega) following the manufacturer's instructions. Briefly, TZM-bl cells were platted in a 96-well tissue culture plate at 1×10^4/well and cultured at 37° C. Following overnight incubation, the cells were incubated with 100 μl of the compounds at graded concentrations and cultured for 3 days. The MTS reagent was added to the cells and incubated for 4 h at 37° C. The absorbance was recorded at 490 nm.

[3] = in vitro; settings: human
Protocol: as §1, §2

[4] = Human immunodeficiency virus 1, HXB2, TZM-bl

SMILES | IC50 [1] [µM] | CC50 [2] [µM] | CC50 at 3 days ([3]; CC50, cytotoxicity, TZM-bl cells, MTS, 3 days) [µM] | CC50 at 3 days ([3]; CC50) [µM] | IC50 [1, 4] [µM]
NCC(NC(=O)c1ccc(-c2ccc(Cl)cn2)[nH]1)c1ncc(CO)s1 (stereo not drawn) [Compound 1, N-(2-Amino-1-(5-(hydroxymethyl)thiazol-2-yl)ethyl)-5-(5-chloropyridin-2-yl)-1H-pyrrole-2-carboxamide] | 0.85 ± 0.1 | 144 ± 7.5 | > 100 |  | 
Cc1cc(-c2ccc(Cl)cn2)[nH]c1C(=O)NC(CN)c1ncc(CO)s1 (stereo not drawn) [Compound 4, N-(2-Amino-1-(5-(hydroxymethyl)thiazol-2-yl)ethyl)-5-(5-chloropyridin-2-yl)-3-methyl-1H-pyrrole-2-carboxamide] | 2.4 ± 0.2 | 95 ± 3.6 |  |  | 
NCC(NC(=O)c1ccc(-c2ccc(C(F)(F)F)cn2)[nH]1)c1ncc(CO)s1 (stereo not drawn) [Compound 6, N-(2-Amino-1-(5-(hydroxymethyl)thiazol-2-yl)ethyl)-5-(5-(trifluoromethyl)pyridin-2-yl)-1H-pyrrole-2-carboxamide] | 1.2 | > 122 |  |  | 
CC(C)(N)C(NC(=O)c1ccc(-c2ccc(C(F)(F)F)cn2)[nH]1)c1ncc(CO)s1 (stereo not drawn) [Compound 9, N-(2-Amino-1-(5-(hydroxymethyl)thiazol-2-yl)-2-methylpropyl)-5-(5-(trifluoromethyl)pyridin-2-yl)-1H-pyrrole-2-carboxamide] |  | 74 ± 3.6 |  | < 50 | 
CC(C)(N)C(NC(=O)c1ccc(-c2ccc(C(F)(F)F)cn2)[nH]1)c1ncc(CO)s1 (stereo not drawn) [Compound 10, N-(2-Amino-1-(5-(hydroxymethyl)thiazol-2-yl)-2-methylpropyl)-5-(5-(trifluoromethyl)pyridin-2-yl)-1H-pyrrole-2-carboxamide] | 0.5 | 41 ± 2.5 |  |  | 
Cc1cc(-c2ccc(C(F)(F)F)cn2)[nH]c1C(=O)NC(c1ncc(CO)s1)C(C)(C)N (stereo not drawn) [Compound 12, N-(2-Amino-1-(5-(hydroxymethyl)thiazol-2-yl)-2-methylpropyl)-3-methyl-5-(5-(trifluoro-methyl)pyridin-2-yl)-1H-pyrrole-2-carboxamide] |  | 37.5 ± 2.2 |  |  | 
NCC(NC(=O)c1ccc(-c2ccc(C(F)(F)F)cn2)[nH]1)c1ncc(C(O)CO)s1 (stereo not drawn) [Compound 14, N-(2-Amino-1-(5-(1,2-dihydroxyethyl)thiazol-2-yl)ethyl)-5-(5-(trifluoromethyl)pyridin-2-yl)-1H-pyrrole-2-carboxamide] | 5.9 ± 0.6 | > 113 |  |  | 
NCC(NC(=O)c1ccc(-c2ccc(Cl)cn2)[nH]1)c1nc(CO)cs1 (stereo not drawn) [Compound 16, N-(2-Amino-1-(4-(hydroxymethyl)thiazol-2-yl)ethyl)-5-(5-chloropyridin-2-yl)-1H-pyrrole-2-carboxamide] | 1.7 ± 0.3 | > 132 |  |  | 
NCC(NC(=O)c1ccc(-c2ccc(F)cn2)[nH]1)c1nc(CO)cs1 (stereo not drawn) [Compound 18, N-(2-Amino-1-(4-(hydroxymethyl)thiazol-2-yl)ethyl)-5-(5-fluoropyridin-2-yl)-1H-pyrrole-2-carboxamide] | > 11 | > 138 |  |  | 
Cc1ccc(-c2ccc(C(=O)NC(CN)c3nc(CO)cs3)[nH]2)nc1 (stereo not drawn) [Compound 20, N-(2-Amino-1-(4-(hydroxymethyl)thiazol-2-yl)ethyl)-5-(5-methylpyridin-2-yl)-1H-pyrrole-2-carboxamide] | > 11 | > 140 |  |  | > 10
NCC(NC(=O)c1ccc(-c2ccc(C(F)(F)F)cn2)[nH]1)c1nc(CO)cs1 (stereo not drawn) [Compound 22, N-(2-Amino-1-(4-(hydroxymethyl)thiazol-2-yl)ethyl)-5-(5-(trifluoromethyl)pyridin-2-yl)-1H-pyrrole-2-carboxamide] |  | 124 ± 7 |  |  | 
CC(C)(N)C(NC(=O)c1ccc(-c2ccc(C(F)(F)F)cn2)[nH]1)c1nc(CO)cs1 (stereo not drawn) [Compound 24, N-(2-Amino-1-(4-(hydroxymethyl)thiazol-2-yl)-2-methylpropyl)-5-(5-(trifluoromethyl)pyridin-2-yl)-1H-pyrrole-2-carboxamide] | 0.58 | 59 ± 10 |  |  | 
NCC(NC(=O)c1ccc(-c2ccc(C(F)(F)F)cn2)[nH]1)c1nc(CCO)cs1 (stereo not drawn) [Compound 26, N-(2-Amino-1-(4-(2-hydroxyethyl)thiazol-2-yl)ethyl)-5-(5-(trifluoromethyl)pyridin-2-yl)-1H-pyrrole-2-carboxamide] | 0.76 | 91 ± 3.6 |  |  | 
NCC(NC(=O)c1ccc(-c2ccc(C(F)(F)F)cn2)[nH]1)c1nc(CCCO)cs1 (stereo not drawn) [Compound 27, N-(2-Amino-1-(4-(3-hydroxypropyl)thiazol-2-yl)ethyl)-5-(5-(trifluoromethyl)pyridin-2-yl)-1H-pyrrole-2-carboxamide] | 2.3 ± 0.3 | > 114 |  | > 100 | 
NCC(NC(=O)c1ccc(-c2ccc(C(F)(F)F)cn2)[nH]1)c1nc(CCCO)cs1 (stereo not drawn) [Compound 28, N-(2-Amino-1-(4-(3-hydroxypropyl)thiazol-2-yl)ethyl)-5-(5-(trifluoromethyl)pyridin-2-yl)-1H-pyrrole-2-carboxamide] | 0.89 ± 0.12 | 81.2 ± 1.3 |  |  | 
NCC(NC(=O)c1ccc(-c2ccc(C(F)(F)F)cn2)[nH]1)c1nc(C(O)CO)cs1 (stereo not drawn) [Compound 30, N-(2-Amino-1-(4-(1,2-dihydroxyethyl)thiazol-2-yl)ethyl)-5-(5-(trifluoromethyl)pyridin-2-yl)-1H-pyrrole-2-carboxamide] | 3.8 ± 0.2 | > 113 |  |  | 

SMILES | IC50 [1] [µM] | CC50 [2] [µM] | CC50 at 3 days ([3]; CC50, cytotoxicity, TZM-bl cells, MTS, 3 days) [µM] | CC50 at 3 days ([3]; CC50) [µM] | IC50 [1, 4] [µM]
NCC(NC(=O)c1ccc(-c2ccc(C(F)(F)F)cn2)[nH]1)c1nc(CO)c(CO)s1 (stereo not drawn) [Compound 36, N-(2-Amino-1-(4,5-bis(hydroxymethyl)thiazol-2-yl)ethyl)-5-(5-(trifluoromethyl)pyridin-2-yl)-1H-pyrrole-2-carboxamide] | 13 | > 113 |  |  | 
NCC(NC(=O)c1ccc(-c2ccc(C(F)(F)F)cn2)[nH]1)c1nccs1 (stereo not drawn) [Compound 38, N-(2-Amino-1-(thiazol-2-yl)ethyl)-5-(5-(trifluoromethyl)pyridin-2-yl)-1H-pyrrole-2-carboxamide] | 1.2 ± 0.03 | 93.6 ± 1.5 |  |  | 
NCC(NC(=O)c1ccc(-c2ccc(Cl)nc2)[nH]1)c1nc(CO)cs1 (stereo not drawn) [Compound 40, N-(2-Amino-1-(4-(hydroxymethyl)thiazol-2-yl)ethyl)-5-(6-chloropyridin-3-yl)-1H-pyrrole-2-carboxamide] | > 11 | > 132 |  |  | 
NCC(NC(=O)c1ccc(-c2ccc(C(F)(F)F)nc2)[nH]1)c1nc(CO)cs1 (stereo not drawn) [Compound 42, N-(2-Amino-1-(4-(hydroxymethyl)thiazol-2-yl)ethyl)-5-(6-(trifluoromethyl)pyridin-3-yl)-1H-pyrrole-2-carboxamide] | 11.9 ± 1.9 | > 122 |  |  | 
NCC(NC(=O)c1ccc(-c2ccc(C(F)(F)F)nn2)[nH]1)c1nc(CO)cs1 (stereo not drawn) [Compound 44, N-(2-Amino-1-(4-(hydroxymethyl)thiazol-2-yl)ethyl)-5-(6-(trifluoromethyl)pyridazin-3-yl)-1H-pyrrole-2-carboxamide] | > 12 | > 73 |  |  | 
NCC(NC(=O)c1ccc(-c2ncc(Cl)cn2)[nH]1)c1nc(CO)cs1 (stereo not drawn) [Compound 46, N-(2-Amino-1-(4-(hydroxymethyl)thiazol-2-yl)ethyl)-5-(5-chloropyrimidin-2-yl)-1H-pyrrole-2-carboxamide] | > 15.8 | > 66 |  |  | 
COc1cc(-c2ccc(C(=O)NC(CN)c3nc(CO)cs3)[nH]2)ccn1 (stereo not drawn) [Compound 48, N-(2-Amino-1-(4-(hydroxymethyl)thiazol-2-yl)ethyl)-5-(2-methoxypyridin-4-yl)-1H-pyrrole-2-carboxamide] | > 11 | > 133 |  |  | 
NCC(NC(=O)c1ccc(-c2ccc(C(F)(F)F)cn2)[nH]1)c1cnc(CO)s1 (stereo not drawn) [Compound 58, N-(2-Amino-1-(2-(hydroxymethyl)thiazol-5-yl)ethyl)-5-(5-(trifluoromethyl)pyridin-2-yl)-1H-pyrrole-2-carboxamide] | 2.1 ± 0.2 | > 122 |  |  | 
NCC(NC(=O)c1ccc(-c2ccc(Cl)cn2)[nH]1)c1cnc(CO)s1 (stereo not drawn) [Compound 60, N-(2-Amino-1-(2-(hydroxymethyl)thiazol-5-yl)ethyl)-5-(5-chloropyridin-2-yl)-1H-pyrrole-2-carboxamide] | 3.6 ± 0.4 | > 106 |  |  | 
Cc1cc(-c2ccc(C(F)(F)F)cn2)[nH]c1C(=O)NC(CN)c1cnc(CO)s1 (stereo not drawn) [Compound 62, N-(2-Amino-1-(2-(hydroxymethyl)thiazol-5-yl)ethyl)-3-methyl-5-(5-(trifluoromethyl)pyridin-2-yl)-1H-pyrrole-2-carboxamide] | 1.9 ± 0.25 | 63.8 ± 2.1 |  |  | 
Cc1cc(-c2ccc(C(F)(F)F)cn2)[nH]c1C(=O)NC(CN)c1csc(CO)n1 (stereo not drawn) [Compound 64, N-(2-Amino-1-(2-(hydroxymethyl)thiazol-4-yl)ethyl)-3-methyl-5-(5-(trifluoromethyl)pyridin-2-yl)-1H-pyrrole-2-carboxamide] | 1.3 ± 0.2 | 47.8 ± 5.9 |  |  | 
NCC(NC(=O)c1ccc(-c2ccc(C(F)(F)F)cn2)[nH]1)c1csc(CO)n1 (stereo not drawn) [Compound 66, N-(2-Amino-1-(2-(hydroxymethyl)thiazol-4-yl)ethyl)-5-(5-(trifluoromethyl)pyridin-2-yl)-1H-pyrrole-2-carboxamide] | 1.7 ± 0.2 | 85.1 ± 2.5 |  |  | 
NCC(NC(=O)c1ccc(-c2ccc(Cl)cn2)[nH]1)c1csc(CO)n1 (stereo not drawn) [Compound 68, N-(2-Amino-1-(2-(hydroxymethyl)thiazol-4-yl)ethyl)-5-(5-chloropyridin-2-yl)-1H-pyrrole-2-carboxamide] |  | > 106 |  |  | 8.2 ± 2.1
NCC(NC(=O)c1ccc(-c2ccc(C(F)(F)F)cn2)[nH]1)c1csc(C(=O)NCCO)n1 (stereo not drawn) [Compound 69, 4-(2-Amino-1-(5-(5-(trifluoromethyl)pyridin-2-yl)-1H-pyrrole-2-carboxamido)ethyl)-N-(2-hydroxyethyl)thiazole-2-carboxamide] |  |  |  | > 107 | > 21.3
NCC(NC(=O)c1ccc(-c2ccc(C(F)(F)F)cn2)[nH]1)c1csc(C(=O)NCCO)n1 (stereo not drawn) [Compound 70, 4-(2-Amino-1-(5-(5-(trifluoromethyl)pyridin-2-yl)-1H-pyrrole-2-carboxamido)ethyl)-N-(2-hydroxyethyl)thiazole-2-carboxamide] | > 21.3 | > 107 |  |  | 

— US20230058961A1, “SUBSTITUTED HETEROCYCLICS WITH THERAPEUTIC ACTIVITY IN HIV” (New York Blood Center, Inc., priority 2019, published 2023)
